Results published in patent publication US20110110965A1, “COMPOSITIONS THAT INDUCE T CELL HELP” (Selecta Biosciences, Inc., priority 2009, published 2011).
“Also recorded” adds a separate entry of the source. Where two headings read alike, the source gives them in different places. Where no end group is shown, it is not given here. [ ]: non-standard residue; d: D form.

Experiments:
[1] = tested on: CD4+/CD45RAlow/CD62Lhigh central memory T-cells; format: cell-based, human; conditions: for memory T-cell recall response, influenza epitopes: 5 PBMC donors, FIG. 12; for memory T-cell recall response, influenza epitopes / potency of recall response (activated central memory T-cells, CD4+/CD45RAmedium/CD62Lhigh/IFN-γ+) / memory T-cell recall response of individual peptides and heterodimeric peptides lacking a cathepsin cleavage site compared with this peptide: 4 μM peptide; for potency of recall response (activated central memory T-cells, CD4+/CD45RAmedium/CD62Lhigh/IFN-γ+): human PBMC, 20 donors, FIG. 2; for memory T-cell recall response of individual peptides and heterodimeric peptides lacking a cathepsin cleavage site compared with this peptide: 4 donors, the comparators gave the weaker response, the labelled kvsvr peptides the stronger
[2] = tested on: CD4+/CD45RAlow/CD62Lhigh central memory T-cells; test: Dendritic cell/CD4 T-cell co-culture, multi-color intracellular cytokine analysis; format: cell-based, human; conditions: for expression of IL-4 in peptide activated memory T-cells / expression of TNF-α and IFN-γ in peptide activated memory T-cells: DC/CD4 T-cell co-culture with peptide, FIGS. 4, 5; for co-expression of TNF-α and IFN-γ / co-expression of TNF-α and IL-4: multiple color flow cytometry, FIG. 6
Method: Early central memory-cells express multiple cytokines (IL-2, TNF-α, IFN-γ) when re-activated with specific peptides, whereas committed effector memory T-cells are thought to selectively express IL-4 for TH2 committed effector memory, and IFN-γ for TH1 committed effector memory. The status of peptide activated memory T-cells was tested using multi-color intracellular cytokine analysis of dendritic cell/CD4 cell co-cultures.
Human peripheral blood monocytes were isolated using negative-selection magnetic beads (Dynal) and cultured in the presence of GM-CSF and IL-4 for 1 week in order to induce differentiation into dendritic cells. Allogeneic CD4 T cells were isolated using magnetic bead separation (Dynal) and co-cultured in the presence of DCs in the presence or absence of peptide. The protocol for stimulation and analysis from that point is identical to that for PBMC described above in Example 2.

Substance: CSQRSKFLLMDALKLkvsvrLIFLARSALILR [AAWkAAT]
- memory T-cell recall response, influenza epitopes [1]: positive

Substance: ILMQYIKANSKFIGIQSIALSSLMVAQAIPLVGEL [TT830DT]
- expression of IL-4 in peptide activated memory T-cells [2]: not IL-4
- expression of TNF-α and IFN-γ in peptide activated memory T-cells [2]: increased expression

Substance: LIFLARSALILRkvsvrILSIYSTVASSLALAI [AATkABW2]
- memory T-cell recall response, influenza epitopes [1]: positive

Substance: ILMQYIKANSKFIGIPMGLPQSIALSSLMVAQ [TT830pDTt]
- potency of recall response (activated central memory T-cells, CD4+/CD45RAmedium/CD62Lhigh/IFN-γ+) ([1]; listed as TT830 pmglpDTt): highest response; also recorded: more active than its individual components (TT830 and DT) alone
- number (out of 20) donors positive for memory T-cells responding to peptide ([1]; positive if greater than 0.08% responding central memory T-cells in the CD4+CD45RAlow population, FIG. 3): 20/20
- expression of IL-4 in peptide activated memory T-cells [2]: not IL-4
- expression of TNF-α and IFN-γ in peptide activated memory T-cells [2]: increased expression
- co-expression of TNF-α and IFN-γ [2]: peptide induced co-expression
- co-expression of TNF-α and IL-4 [2]: not co-expression

Substance: TLLYVLFEVkvsvrQSIALSSLMVAQ (TLLYVLFEV[dK][dV][dS][dV][dR]QSIALSSLMVAQ) [AdVkDTt]
- memory T-cell recall response of individual peptides and heterodimeric peptides lacking a cathepsin cleavage site compared with this peptide [1]: weaker response as compared to the donor response to heterotrimeric peptides

Substance: ILMQYIKANSKFIGI QSIALSSLMVAQTLLYVLFEV (ILMQYIKANSKFIGIQSIALSSLMVAQTLLYVLFEV) [TT830DTAdV]
- memory T-cell recall response [1]: recall response in all 4 donors

Substance: TLLYVLFEVPMGLPILMQYIKANSKFIGI [AdVpTT830]
- potency of recall response (activated central memory T-cells, CD4+/CD45RAmedium/CD62Lhigh/IFN-γ+) [1]: eliminated activity of the AdV epitope

Substance: NAELLVALENQHTIkvsvrLIFLARSALILR (NAELLVALENQHTIKVSVRLIFLARSALILR) [3120tkAAT]
- memory T-cell recall response, influenza epitopes [1]: positive

Substance: TLLYVLFEVkvsvr NNFTVSFWLRVPKVSASHLET (TLLYVLFEV[dK][dV][dS][dV][dR]NNFTVSFWLRVPKVSASHLET) [AdVkTT950]
- memory T-cell recall response of individual peptides and heterodimeric peptides lacking a cathepsin cleavage site compared with this peptide [1]: weaker response as compared to the donor response to heterotrimeric peptides

Substance: ILSIYSTVASSLALAIkvsvrLIFLARSALILR [ABW2kAAT]
- memory T-cell recall response, influenza epitopes [1]: positive

Substance: ILMQYIKANSKFIGIQSIALSSLMVAQ [TT830DTt]
- co-expression of TNF-α and IFN-γ [2]: peptide induced co-expression
- co-expression of TNF-α and IL-4 [2]: not co-expression
